Experimental data reported in BigSolDB 2.1.

CC(C)(C)c1ccc(OP2OCC3(CO2)COP(Oc2ccc(C(C)(C)C)cc2C(C)(C)C)OC3)c(C(C)(C)C)c1 (stereo not drawn)
Conditions | solubility (mole fraction)
in ethanol, 303.25 K | 0.000185
in ethanol, 308.15 K | 0.000249
in ethanol, 312.85 K | 0.000324
in ethanol, 318.15 K | 0.000365
in ethanol, 322.95 K | 0.000426
in ethanol, 328.15 K | 0.000534
in ethanol, 332.15 K | 0.000669
in isopropanol, 304.15 K | 0.000296
in isopropanol, 308.35 K | 0.000371
in isopropanol, 313.15 K | 0.000473
in isopropanol, 318.25 K | 0.000657
in isopropanol, 323.15 K | 0.000752
in isopropanol, 327.95 K | 0.00113
in isopropanol, 333.35 K | 0.00163
in methanol, 304.65 K | 5.05e-05
in methanol, 308.25 K | 5.84e-05
in methanol, 312.95 K | 7.84e-05
in methanol, 318.15 K | 0.000119
in methanol, 322.65 K | 0.000154
in n-propanol, 303.15 K | 0.000477
in n-propanol, 308.15 K | 0.000582
in n-propanol, 313.05 K | 0.000735
in n-propanol, 318.25 K | 0.000925
in n-propanol, 322.75 K | 0.00113
in n-propanol, 327.95 K | 0.00146
in n-propanol, 333.15 K | 0.00182
in tert-butanol, 302.95 K | 0.000674
in tert-butanol, 308.05 K | 0.000853
in tert-butanol, 313.15 K | 0.0012
in tert-butanol, 318.45 K | 0.00157
in tert-butanol, 323.05 K | 0.00222
in tert-butanol, 328.45 K | 0.00302
in tert-butanol, 332.95 K | 0.00379
